This is an account of results in patent US10045983B2, “Heteroaryl pyridone and aza-pyrodine compounds” (Genentech, Inc., priority 2011, dated 2018).

The assay is described as follows: CD69 Whole Blood Assay (CD69 Hu Blood FACS). As to conditions: Lymphocyte. In kind it is cell-based, human. A digest of the protocol: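 Compounds tested for blocking B-cell CD69 induction by flow cytometry in human whole blood, with activation via anti-human IgM goat F(ab′)2 crosslinking of surface IgM.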
Where [1] appears, read: human whole blood, anti-IgM activated B lymphocytes, FACS, IC70, Table 1, read-out: CD69 Hu Blood FACS IC70.

The structures appear in SMILES notation. Where two headings read alike, the source gives them in different places.

Take `C[C@H]1CN(C2COC2)CCN1c1ccc(Nc2cc(-c3ccnc(N4CCn5c(cc6c5CCCC6)C4=O)c3C3(O)COC3)cn(C)c2=O)nc1` [Example 148, (S)-2-(3-(3-Hydroxyoxetan-3-yl)-4-(1-methyl-5-(5-(2-methyl-4-(oxetan-3-yl)piperazin-1-yl)pyridin-2-ylamino)-6-oxo-1,6-dihydropyridin-3-yl)pyridin-2-yl)-3,4,6,7,8,9-hexahydropyrazino[1,2-a]indol-1(2H)-one]: under setting [1], the 70% effect concentration (IC70) came out at 5 µM.

As to `C[C@H]1CN(C2COC2)CCN1c1ccc(Nc2cc(-c3ccnc(N4CCc5c(cc6n5CCCC6)C4=O)c3CO)cn(C)c2=O)nc1` [Example 149, 2-{3′-Hydroxymethyl-1-methyl-5-[5-((S)-2-methyl-4-oxetan-3-yl-piperazin-1-yl)-pyridin-2-ylamino]-6-oxo-1,6-dihydro-[3,4′]bipyridinyl-2′-yl}-2,3,5,6,7,8-hexahydro-4H-2,4b-diaza-fluoren-1-one], the IC70 under setting [1] worked out at 0.0454 µM. On the same count and under the same terms, for `CN1CCn2nc(Nc3cc(-c4cncc(N5CCn6c(cc7c6CC(C)(C)C7)C5=O)c4CO)cn(C)c3=O)cc2C1` [Example 150, 2-[4-Hydroxymethyl-1′-methyl-5′-(5-methyl-4,5,6,7-tetrahydro-pyrazolo[1,5-a]pyrazin-2-ylamino)-6′-oxo-1′,6′-dihydro-[3,3′]bipyridinyl-5-yl]-7,7-dimethyl-3,4,7,8-tetrahydro-2H,6H-cyclopenta[4,5]pyrrolo[1,2-a]pyrazin-1-one] the value was 0.0316 µM; for `C[C@@H]1CN(C2COC2)CCN1c1ccc(Nc2cc(-c3ccnc(-n4ccn5c6c(cc5c4=O)CCCC6)c3CO)cn(C)c2=O)nc1` [Example 151, 2-{3′-Hydroxymethyl-1-methyl-5-[5-((R)-2-methyl-4-oxetan-3-yl-piperazin-1-yl)-pyridin-2-ylamino]-6-oxo-1,6-dihydro-[3,4′]bipyridinyl-2′-yl}-6,7,8,9-tetrahydro-2H-pyrazino[1,2-a]indol-1-one], 0.0455 µM. On to `Cn1cc(-c2ccnc(N3CCn4c(cc5c4CCCC5)C3=O)c2CO)cc(Nc2ccc(N3[C@@H]4CC[C@H]3CN(C3COC3)C4)cn2)c1=O` [Example 152, 2-{3′-Hydroxymethyl-1-methyl-5-[5-((1 S,5R)-3-oxetan-3-yl-3,8-diaza-bicyclo[3.2.1]oct-8-yl)-pyridin-2-ylamino]-6-oxo-1,6-dihydro-[3,4′]bipyridinyl-2′-yl}-3,4,6,7,8,9-hexahydro-2H-pyrazino[1,2-a]indol-1-one], for which the IC70 (Homo sapiens, read-out: CD69 Hu Blood FACS IC70 (μM)) was determined as 0.188 µM. In the case of `C[C@@H]1CN(C2COC2)CCN1c1ccc(Nc2cc(-c3ccnc(N4CCn5c(cc6c5CC(C)(C)C6)C4=O)c3CO)cn(C)c2=O)nc1` [Example 153, 2-{3′-Hydroxymethyl-1-methyl-5-[5-((R)-2-methyl-4-oxetan-3-yl-piperazin-1-yl)-pyridin-2-ylamino]-6-oxo-1,6-dihydro-[3,4′]bipyridinyl-2′-yl}-7,7-dimethyl-3,4,7,8-tetrahydro-2H,6H-cyclopenta[4,5]pyrrolo[1,2-a]pyrazin-1-one], the IC70 under setting [1] worked out at 0.0238 µM. On the same count and under the same terms, then `C[C@@H]1CN(C2COC2)CCN1c1ccc(Nc2cc(-c3ccnc(-n4ncc5c6c(sc5c4=O)CCCC6)c3CO)cn(C)c2=O)nc1` [Example 154, 3-{3′-Hydroxymethyl-1-methyl-5-[5-((R)-2-methyl-4-oxetan-3-yl-piperazin-1-yl)-pyridin-2-ylamino]-6-oxo-1,6-dihydro-[3,4′]bipyridinyl-2′-yl}-6,7,8,9-tetrahydro-3H-benzo[4,5]thieno[2,3-d]pyridazin-4-one], with 0.0374 µM. On the same count and under the same terms, then `C[C@@H]1CN(c2ccc(Nc3cc(-c4ccnc(N5CCc6c(cc7n6CCCC7)C5=O)c4CO)cn(C)c3=O)nc2)[C@@H](C)CN1C1COC1` [Example 155, 2-{5-[5-((2S,5R)-2,5-Dimethyl-4-oxetan-3-yl-piperazin-1-yl)-pyridin-2-ylamino]-3′-hydroxymethyl-1-methyl-6-oxo-1,6-dihydro-[3,4′]bipyridinyl-2′-yl}-2,3,5,6,7,8-hexahydro-4H-2,4b-diaza-fluoren-1-one], with 0.0454 µM; and `C[C@@H]1CN(c2ccc(Nc3cc(-c4ccnc(N5CCn6c7c(c(F)c6C5=O)CCCC7)c4CO)cn(C)c3=O)nc2)[C@@H](C)CN1C1COC1` [Example 156, 2-{5-[5-((2S,5R)-2,5-Dimethyl-4-oxetan-3-yl-piperazin-1-yl)-pyridin-2-ylamino]-3′-hydroxymethyl-1-methyl-6-oxo-1,6-dihydro-[3,4′]bipyridinyl-2′-yl}-10-fluoro-3,4,6,7,8,9-hexahydro-2H-pyrazino[1,2-a]indol-1-one], with 0.0145 µM; and `C[C@@H]1CN(c2ccc(Nc3cc(-c4cncc(N5CCn6c(cc7c6CCCC7)C5=O)c4CO)cn(C)c3=O)nc2)[C@@H](C)CN1C1COC1` [Example 157], with 0.0298 µM. Same read-out and setting: for `C[C@@H]1CN(c2ccc(Nc3cc(-c4ccnc(N5CCn6c(cc7c6CC(C)(C)C7)C5=O)c4CO)cn(C)c3=O)nc2)[C@@H](C)CN1C1COC1` [Example 158, 2-{5-[5-((2S,5R)-2,5-Dimethyl-4-oxetan-3-yl-piperazin-1-yl)-pyridin-2-ylamino]-3′-hydroxymethyl-1-methyl-6-oxo-1,6-dihydro-[3,4′]bipyridinyl-2′-yl}-7,7-dimethyl-3,4,7,8-tetrahydro-2H,6H-cyclopenta[4,5]pyrrolo[1,2-a]pyrazin-1-one] the value was 0.02 µM. `C[C@@H]1CN(c2ccc(Nc3cc(-c4ccnc(-n5ncc6c7c(sc6c5=O)CCCC7)c4CO)cn(C)c3=O)nc2)[C@@H](C)CN1C1COC1` [Example 159, 3-{5-[5-((2S, 5R)-2,5-Dimethyl-4-oxetan-3-yl-piperazin-1-yl)-pyridin-2-ylamino]-3′-hydroxymethyl-1-methyl-6-oxo-1,6-dihydro-[3,4′]bipyridinyl-2′-yl}-6,7,8,9-tetrahydro-3H-benzo[4,5]thieno[2,3-d]pyridazin-4-one]: the IC70 under setting [1] turned out to be 0.082 µM. For `C[C@@H]1CN(c2ccc(Nc3cc(-c4ccnc(-n5ccn6c7c(cc6c5=O)CCCC7)c4CO)cn(C)c3=O)nc2)[C@@H](C)CN1C1COC1` [Example 160, 2-{5-[5-((2S, 5R)-2,5-Dimethyl-4-oxetan-3-yl-piperazin-1-yl)-pyridin-2-ylamino]-3′-hydroxymethyl-1-methyl-6-oxo-1,6-dihydro-[3,4′]bipyridinyl-2′-yl}-6,7,8,9-tetrahydro-2H-pyrazino[1,2-a]indol-1-one], the 70% effect concentration (IC70) under setting [1] was 0.0547 µM. Same read-out and setting: for `CC[C@H]1CN(C2COC2)CCN1c1ccc(Nc2cc(-c3ccnc(N4CCc5c(cc6n5CCCC6)C4=O)c3CO)cn(C)c2=O)nc1` [Example 161, 2-{5-[5-((S)-2-Ethyl-4-oxetan-3-yl-piperazin-1-yl)-pyridin-2-ylamino]-3′-hydroxymethyl-1-methyl-6-oxo-1,6-dihydro-[3,4′]bipyridinyl-2′-yl}-2,3,5,6,7,8-hexahydro-4H-2,4b-diaza-fluoren-1-one] the value was 0.064 µM; for `Cn1cc(-c2ccnc(N3CCn4c(cc5c4CCCC5)C3=O)c2CO)cc(Nc2cnccn2)c1=O` [Example 162, 2-[3′-Hydroxymethyl-1-methyl-6-oxo-5-(pyrazin-2-ylamino)-1,6-dihydro-[3,4′]bipyridinyl-2′-yl]-3,4,6,7,8,9-hexahydro-2H-pyrazino[1,2-a]indol-1-one], 0.434 µM.

On to `Cn1cc(-c2ccnc(N3CCn4c(cc5c4CC(C)(C)C5)C3=O)c2CO)cc(Nc2cc3n(n2)CCN(C2COC2)C3)c1=O` [Example 163, 2-[3′-Hydroxymethyl-1-methyl-5-(5-oxetan-3-yl-4,5,6,7-tetrahydro-pyrazolo[1,5-a]pyrazin-2-ylamino)-6-oxo-1,6-dihydro-[3,4′]bipyridinyl-2′-yl]-7,7-dimethyl-3,4,7,8-tetrahydro-2H,6H-cyclopenta[4,5]pyrrolo[1,2-a]pyrazin-1-one], for which the IC70 under setting [1] stood at 0.0228 µM. Still for that read-out and setting: for `CC[C@H]1CN(C2COC2)CCN1c1ccc(Nc2cc(-c3ccnc(N4CCn5c(cc6c5CC(C)(C)C6)C4=O)c3CO)cn(C)c2=O)nc1` [Example 164, 2-{5-[5-((S)-2-Ethyl-4-oxetan-3-yl-piperazin-1-yl)-pyridin-2-ylamino]-3′-hydroxymethyl-1-methyl-6-oxo-1,6-dihydro-[3,4′]bipyridinyl-2′-yl}-7,7-dimethyl-3,4,7,8-tetrahydro-2H,6H-cyclopenta[4,5]pyrrolo[1,2-a]pyrazin-1-one] the value was 0.029 µM; for `CC[C@H]1CN(C2COC2)CCN1c1ccc(Nc2cc(-c3ccnc(-n4ccn5c6c(cc5c4=O)CCCC6)c3CO)cn(C)c2=O)nc1` [Example 165, 2-{5-[5-((S)-2-Ethyl-4-oxetan-3-yl-piperazin-1-yl)-pyridin-2-ylamino]-3′-hydroxymethyl-1-methyl-6-oxo-1,6-dihydro-[3,4′]bipyridinyl-2′-yl}-6,7,8,9-tetrahydro-2H-pyrazino[1,2-a]indol-1-one], 0.0417 µM. Same read-out and setting: then `Cn1cc(-c2ccnc(N3CCn4c5c(c(F)c4C3=O)CCCC5)c2CO)cc(Nc2cc3n(n2)CCN(C2COC2)C3)c1=O` [Example 166, 10-Fluoro-2-[3′-hydroxymethyl-1-methyl-5-(5-oxetan-3-yl-4,5,6,7-tetrahydro-pyrazolo[1,5-a]pyrazin-2-ylamino)-6-oxo-1,6-dihydro-[3,4′]bipyridinyl-2′-yl]-3,4,6,7,8,9-hexahydro-2H-pyrazino[1,2-a]indol-1-one], with 0.155 µM; and `Cn1cc(-c2ccnc(N3CCn4c(cc5c4CC(C)(C)C5)C3=O)c2CO)cc(Nc2cc3n(n2)CCOC3)c1=O` [Example 168, 2-[5-(6,7-Dihydro-4H-pyrazolo[5,1-c][1,4]oxazin-2-ylamino)-3′-hydroxymethyl-1-methyl-6-oxo-1,6-dihydro-[3,4′]bipyridinyl-2′-yl]-7,7-dimethyl-3,4,7,8-tetrahydro-2H,6H-cyclopenta[4,5]pyrrolo[1,2-a]pyrazin-1-one], with 0.0635 µM. For the compound `Cn1cc(-c2ccnc(N3CCc4c(sc5c4CCCC5)C3=O)c2CO)cc(Nc2ccc(N3CCN(C4COC4)CC3)cn2)c1=O` [Example 169, 2-{3′-Hydroxymethyl-1-methyl-5-[5-(4-oxetan-3-yl-piperazin-1-yl)-pyridin-2-ylamino]-6-oxo-1,6-dihydro-[3,4′]bipyridinyl-2′-yl}-3,4,5,6,7,8-hexahydro-2H-benzo[4,5]thieno[2,3-c]pyridin-1-one], the IC70 under setting [1] is 0.206 µM.
